From PubChem BioAssay AID1963861 (Molecular Pharmacology Branch, DTP, NCI, 2024)

System: 885724-159-R-J1-PDC KRAS PDC multicell spheroid viability
Experiment: Anticancer human tumor 885724-159-R-J1-PDC patient-derived pancreatic adenocarcinoma cell line growth inhibition [KRAS2]
Conditions: for IC50: curve of first compound; for viability, T/C: stronger effect = lower value
Summary of the method: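 KRAS-mutant tumor cells were grown as spheroids with HUVEC endothelial cells and human MSCs as stroma. Targeted agents were tested alone and with KRAS pathway inhibitors. Doses started at or near clinical Cmax, or 10 microM, descending half-log.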

[1] = second compound 0.1 µM, first compound 0.01 µM
[2] = second compound 0.1 µM, first compound 0.0316 µM
[3] = second compound 0.1 µM, first compound 0.1 µM
[4] = second compound 0.1 µM, first compound 0.316 µM
[5] = second compound 0.1 µM, first compound 1 µM
[6] = second compound 0.1 µM, first compound 3.16 µM
[7] = second compound 0.316 µM, first compound 0.01 µM
[8] = second compound 0.316 µM, first compound 0.0316 µM
[9] = second compound 0.316 µM, first compound 0.1 µM
[10] = second compound 0.316 µM, first compound 0.316 µM
[11] = second compound 0.316 µM, first compound 1 µM
[12] = second compound 0.316 µM, first compound 3.16 µM
[13] = second compound 1 µM, first compound 0.01 µM
[14] = second compound 1 µM, first compound 0.0316 µM
[15] = second compound 1 µM, first compound 0.1 µM
[16] = second compound 1 µM, first compound 0.316 µM
[17] = second compound 1 µM, first compound 1 µM
[18] = second compound 1 µM, first compound 3.16 µM
[19] = second compound 3.16 µM, first compound 0.01 µM
[20] = second compound 3.16 µM, first compound 0.0316 µM
[21] = second compound 3.16 µM, first compound 0.1 µM
[22] = second compound 3.16 µM, first compound 0.316 µM
[23] = second compound 3.16 µM, first compound 1 µM
[24] = second compound 3.16 µM, first compound 3.16 µM
[25] = second compound 10 µM, first compound 0.01 µM
[26] = second compound 10 µM, first compound 0.0316 µM
[27] = second compound 10 µM, first compound 0.1 µM
[28] = second compound 10 µM, first compound 0.316 µM
[29] = second compound 10 µM, first compound 1 µM
[30] = second compound 10 µM, first compound 3.16 µM
[31] = second compound 0.1 µM, first compound 10 µM
[32] = second compound 0.316 µM, first compound 10 µM
[33] = second compound 1 µM, first compound 10 µM
[34] = second compound 3.16 µM, first compound 10 µM
[35] = second compound 10 µM, first compound 10 µM
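Note: spheroids exposed to agents for 7 days before readout.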

SMILES | IC50 (second compound 0.1 µM) [nM] | IC50 (second compound 0.316 µM) [nM] | IC50 (second compound 1 µM) [nM] | IC50 (second compound 3.16 µM) [nM] | IC50 (second compound 10 µM) [nM] | viability, T/C [2] [%] | viability, T/C [3] [%] | viability, T/C [4] [%] | viability, T/C [5] [%] | viability, T/C [6] [%] | viability, T/C [8] [%] | viability, T/C [9] [%] | viability, T/C [10] [%] | viability, T/C [11] [%] | viability, T/C [14] [%] | viability, T/C [15] [%] | viability, T/C [20] [%] | viability, T/C [21] [%] | viability, T/C [26] [%] | viability, T/C [27] [%] | other results
CC(=O)OC12COC1CC(O)C1(C)C(=O)C(O)C3=C(C)C(OC(=O)C(O)C(NC(=O)OC(C)(C)C)c4ccccc4)CC(O)(C(OC(=O)c4ccccc4)C21)C3(C)C (stereo not given) + CC1OCC2(CCN(c3cnc(Sc4ccnc(N)c4Cl)c(N)n3)CC2)C1N | > 3160 | > 3160 | > 3160 | > 3160 | > 3160 | 110 | 108 | 117 | 122 | 121 | 100 | 109 | 114 | 128 | 120 | 126 | 86.7 | 88.9 | 84.5 | 87.4 | viability, T/C [1]: 103%; viability, T/C [7]: 99.7%; viability, T/C [12]: 116%; viability, T/C [13]: 112%; viability, T/C [16]: 122%; viability, T/C [17]: 135%; viability, T/C [18]: 138%; viability, T/C [19]: 76.2%; viability, T/C [22]: 93.6%; viability, T/C [23]: 97.2%; viability, T/C [24]: 97.8%; viability, T/C [25]: 77.6%; viability, T/C [28]: 95.5%; viability, T/C [29]: 91.5%; viability, T/C [30]: 103%
CN(C)C/C=C/C(=O)Nc1cc2c(Nc3ccc(F)c(Cl)c3)ncnc2cc1O[C@H]1CCOC1 + CC1OCC2(CCN(c3cnc(Sc4ccnc(N)c4Cl)c(N)n3)CC2)C1N | > 100 | > 100 | > 100 | > 100 | > 100 | 71.8 | 68 | – | – | – | 78.6 | 71.5 | – | – | 105 | 89.2 | 67.1 | 62.8 | 104 | 92 | viability, T/C (second compound 0.1 µM, first compound 0.000316 µM): 112%; viability, T/C (second compound 0.1 µM, first compound 0.001 µM): 105%; viability, T/C (second compound 0.1 µM, first compound 0.00316 µM): 105%; viability, T/C [1]: 89.4%; viability, T/C (second compound 0.316 µM, first compound 0.000316 µM): 103%; viability, T/C (second compound 0.316 µM, first compound 0.001 µM): 102%; viability, T/C (second compound 0.316 µM, first compound 0.00316 µM): 90.7%; viability, T/C [7]: 81.3%; viability, T/C (second compound 1 µM, first compound 0.000316 µM): 150%; viability, T/C (second compound 1 µM, first compound 0.001 µM): 144%; viability, T/C (second compound 1 µM, first compound 0.00316 µM): 136%; viability, T/C [13]: 121%; viability, T/C (second compound 3.16 µM, first compound 0.000316 µM): 88.1%; viability, T/C (second compound 3.16 µM, first compound 0.001 µM): 88%; viability, T/C (second compound 3.16 µM, first compound 0.00316 µM): 77.8%; viability, T/C [19]: 72.8%; viability, T/C (second compound 10 µM, first compound 0.000316 µM): 147%; viability, T/C (second compound 10 µM, first compound 0.001 µM): 149%; viability, T/C (second compound 10 µM, first compound 0.00316 µM): 140%; viability, T/C [25]: 116%
COC(=O)c1ccc2c(C(=Nc3ccc(N(C)C(=O)CN4CCN(C)CC4)cc3)c3ccccc3)c(O)[nH]c2c1 + CC1OCC2(CCN(c3cnc(Sc4ccnc(N)c4Cl)c(N)n3)CC2)C1N | 2020 | 1820 | 1520 | 1400 | 1090 | 95 | 95.8 | 92.2 | 94.2 | 21.9 | 91.4 | 84.9 | 80.9 | 86.4 | 67.3 | 69.3 | 66.9 | 74.1 | 62 | 68.8 | viability, T/C [31]: 0.87%; viability, T/C [12]: 17.1%; viability, T/C [32]: 0.39%; viability, T/C [16]: 73.8%; viability, T/C [17]: 70.2%; viability, T/C [18]: 14.8%; viability, T/C [33]: 1.25%; viability, T/C [22]: 78.2%; viability, T/C [23]: 66%; viability, T/C [24]: 10.4%; viability, T/C [34]: 0.29%; viability, T/C [28]: 61.4%; viability, T/C [29]: 53.9%; viability, T/C [30]: 2.07%; viability, T/C [35]: 0.63%
O=C(c1cc(Cc2n[nH]c(=O)c3ccccc23)ccc1F)N1CCN(C(=O)C2CC2)CC1 + CC1OCC2(CCN(c3cnc(Sc4ccnc(N)c4Cl)c(N)n3)CC2)C1N | > 10000 | > 10000 | > 10000 | > 10000 | > 10000 | 111 | 113 | 106 | 104 | 100 | 103 | 109 | 104 | 103 | 145 | 149 | 81 | 90.4 | 78.3 | 87.4 | viability, T/C [31]: 95.8%; viability, T/C [12]: 104%; viability, T/C [32]: 89.6%; viability, T/C [16]: 143%; viability, T/C [17]: 137%; viability, T/C [18]: 118%; viability, T/C [33]: 104%; viability, T/C [22]: 85.1%; viability, T/C [23]: 86%; viability, T/C [24]: 78.9%; viability, T/C [34]: 77.6%; viability, T/C [28]: 132%; viability, T/C [29]: 81%; viability, T/C [30]: 70.7%; viability, T/C [35]: 67.1%
